Laboratory results: ChEMBL document CHEMBL1157877, “Design, synthesis and biological evaluation of new ionone derivatives as potential neuroprotective agents in cerebral ischemia” (2010)

How the values were obtained:
Format in all cases: functional
Neuron [1] = assay: Neuroprotective effect against H202-induced Sprague-Dawley rat neuron injury assessed as early apoptic cells by annexin V-propidium iodide staining by flow cytometry (reference value: 3.09% +/- 1.40%)
Neuron [2] = assay: Neuroprotective effect against H202-induced Sprague-Dawley rat neuron injury assessed as necrotic cells by annexin V-propidium iodide staining by flow cytometry (reference value: 1.02% +/-0.4%)
Neuron [3] = assay: Neuroprotective effect against H202-induced Sprague-Dawley rat neuron injury assessed as late apoptic cells by annexin V-propidium iodide staining by flow cytometry (Rvb= 2.22%+/-0.70%)
Neuron [4] = assay: Neuroprotective effect against H202-induced Sprague-Dawley rat neuron injury assessed as viable cells by annexin V-propidium iodide staining by flow cytometry (reference value: 93.66%+/-2.19%)
Neuron [5] = assay: Neuroprotective effect against H202-induced Sprague-Dawley rat neuron injury assessed as apoptic cells by annexin V-propidium iodide staining by flow cytometry; design: concentration or dose not given beside the values
Neuron [6] = assay: Neuroprotective effect against H202-induced Sprague-Dawley rat neuron injury assessed as cell viability by annexin V-propidium iodide staining by flow cytometry

Compound: C[C@]12N[C@H](Cc3ccccc31)c1ccccc12.O=C(O)/C=C\C(=O)O [DIZOCILPINE MALEATE]
- Activity (Neuron [1]): 14.9%
- Activity (Neuron [2]): 1.96%
- Activity (Neuron [3]): 1.56%
- Activity (Neuron [4]): 82.45%

Compound: CCOc1ccc(C(C)(O)/C=C/C2=C(C)CCCC2(C)C)cc1 (stereo unspecified)
- Activity (Neuron [1]): 50.34%
- Activity (Neuron [2]): 0.93%
- Activity (Neuron [3]): 15.62%
- Activity (Neuron [4]): 33.1%

Compound: COc1ccc(C(C)(O)/C=C/C2C(C)=CCCC2(C)C)cc1OC (stereo unspecified)
- Activity (Neuron [1]): 57.36%
- Activity (Neuron [5]): 57.36%
- Activity (Neuron [2]): 0.065%
- Activity (Neuron [3]): 38.5%
- Activity (Neuron [4]): 3.9%

Compound: COc1ccccc1C(C)(O)/C=C/C1=C(C)CCCC1(C)C (stereo unspecified)
- Activity (Neuron [1]): 66.1%
- Activity (Neuron [2]): 0.32%
- Activity (Neuron [3]): 14.5%
- Activity (Neuron [4]): 19%

Compound: COc1cc(/C=C/C(=O)CC(=O)/C=C/c2ccc(O)c(OC)c2)ccc1O [CURCUMIN]
- Activity (Neuron [1]): 24.15%
- Activity (Neuron [2]): 1.89%
- Activity (Neuron [3]): 7.3%
- Activity (Neuron [4]): 79.9%

Compound: CCCCCOc1ccc(C(C)(O)/C=C/C2C(C)=CCCC2(C)C)cc1 (stereo unspecified)
- Activity (Neuron [1]): 25.77%
- Activity (Neuron [2]): 0.61%
- Activity (Neuron [3]): 12.7%
- Activity (Neuron [4]): 60.91%

Compound: CSc1ccc(C(C)(O)/C=C/C2=C(C)CCCC2(C)C)cc1 (stereo unspecified)
- Activity (Neuron [1]): 30.89%
- Activity (Neuron [2]): 0.21%
- Activity (Neuron [3]): 2.5%
- Activity (Neuron [4]): 66.4%

Compound: CCCOc1ccc(C(C)(O)/C=C/C2C(C)=CCCC2(C)C)cc1 (stereo unspecified)
- Activity (Neuron [1]): 4.31%
- Activity (Neuron [2]): 3%
- Activity (Neuron [3]): 0.7%
- Activity (Neuron [4]): 91.9%

Compound: CC1=CCCC(C)(C)C1/C=C/C(C)(O)c1ccsc1 (stereo unspecified)
- Activity (Neuron [1]): 50.9%
- Activity (Neuron [5]): 50.9%
- Activity (Neuron [2]): 0.025%
- Activity (Neuron [3]): 42.09%
- Activity (Neuron [4]): 6.8%

Compound: CCCOc1ccc(C(C)(O)/C=C/C2=C(C)CCCC2(C)C)cc1 (stereo unspecified)
- Activity (Neuron [1]): 53.84%
- Activity (Neuron [2]): 0.52%
- Activity (Neuron [3]): 16.6%
- Activity (Neuron [4]): 29%

Compound: CCCCCOc1ccc(C(C)(O)/C=C/C2=C(C)CCCC2(C)C)cc1 (stereo unspecified)
- Activity (Neuron [1]): 26.48%
- Activity (Neuron [2]): 0.26%
- Activity (Neuron [3]): 4.02%
- Activity (Neuron [4]): 69.25%

Compound: COc1cccc(C(C)(O)/C=C/C2=C(C)CCCC2(C)C)c1 (stereo unspecified)
- Activity (Neuron [1]): 4.95%
- Activity (Neuron [2]): 7.39%
- Activity (Neuron [3]): 5.35%
- Activity (Neuron [4]): 82.3%

Compound: CC1=CCCC(C)(C)C1/C=C/C(C)(O)c1ccccc1 (stereo unspecified)
- Activity (Neuron [1]): 62.9%
- Activity (Neuron [5]): 62.9%
- Activity (Neuron [2]): 0.05%
- Activity (Neuron [3]): 30.47%
- Activity (Neuron [4]): 6.5%

Compound: CC1=CCCC(C)(C)C1/C=C/C(C)(O)c1cc(C)ccc1C (stereo unspecified)
- Activity (Neuron [1]): 55.1%
- Activity (Neuron [5]): 55.1%
- Activity (Neuron [2]): 0.045%
- Activity (Neuron [3]): 38.3%
- Activity (Neuron [4]): 6.4%

Compound: CCOc1ccc(C(C)(O)/C=C/C2C(C)=CCCC2(C)C)cc1 (stereo unspecified)
- Activity (Neuron [1]): 31.4%
- Activity (Neuron [2]): 1.32%
- Activity (Neuron [3]): 16.3%
- Activity (Neuron [4]): 50.8%

Compound: COc1ccc(C(C)(O)/C=C/C2C(C)=CCCC2(C)C)cc1 (stereo unspecified)
- Activity (Neuron [1]): 41.37%
- Activity (Neuron [2]): 1.14%
- Activity (Neuron [3]): 19.72%
- Activity (Neuron [4]): 37.75%

Compound: CC1=CCCC(C)(C)C1/C=C/C(C)(O)c1ccc(C(F)(F)F)cc1 (stereo unspecified)
- Activity (Neuron [1]): 72.6%
- Activity (Neuron [5]): 72.6%
- Activity (Neuron [2]): 0.057%
- Activity (Neuron [3]): 22.23%
- Activity (Neuron [4]): 5.09%

Compound: COc1cccc(C(C)(O)/C=C/C2C(C)=CCCC2(C)C)c1 (stereo unspecified)
- Activity (Neuron [1]): 25.02%
- Activity (Neuron [6]): 61.7%
- Activity (Neuron [2]): 3.89%
- Activity (Neuron [3]): 9.4%
- Activity (Neuron [4]): 61.7%

Compound: COc1ccccc1C(C)(O)/C=C/C1C(C)=CCCC1(C)C (stereo unspecified)
- Activity (Neuron [1]): 39.8%
- Activity (Neuron [2]): 0.42%
- Activity (Neuron [3]): 15.2%
- Activity (Neuron [4]): 44.4%

Compound: CC1=CCCC(C)(C)C1/C=C/C(C)(O)c1ccc(C(C)(C)C)cc1 (stereo unspecified)
- Activity (Neuron [1]): 62.1%
- Activity (Neuron [5]): 62.1%
- Activity (Neuron [2]): 0.05%
- Activity (Neuron [3]): 30.4%
- Activity (Neuron [4]): 7.36%

Compound: CSc1ccc(C(C)(O)/C=C/C2C(C)=CCCC2(C)C)cc1 (stereo unspecified)
- Activity (Neuron [1]): 50.55%
- Activity (Neuron [2]): 0.58%
- Activity (Neuron [3]): 15.43%
- Activity (Neuron [4]): 33.43%

Compound: COc1ccc(C(C)(O)/C=C/C2=C(C)CCCC2(C)C)cc1 (stereo unspecified)
- Activity (Neuron [1]): 12.2%
- Activity (Neuron [6]): 75.25%
- Activity (Neuron [2]): 3.42%
- Activity (Neuron [3]): 9.06%
- Activity (Neuron [4]): 75.25%
